Source: patent publication US10653688B2, “6-(6-membered heteroaryl and aryl)isoquinolin-3-yl carboxamides and preparation and use thereof” (Samumed, LLC, priority 2017, dated 2020)
Like-named read-outs stand apart in the source and are kept apart here.

Legend:
[1] = system: Wnt activity (SW480 colon carcinoma cells stably expressing the Sp5-Luc reporter gene); assay: Wnt activity screening assay (Sp5-Luc reporter gene assay); assay type: cell-based, human; settings: for EC50: 36 to 48 hours; for inhibition at 10 µM: read-out: percent inhibition at 10 μM (given for EC50 >10 μM), 10 μM
Description: The screening assay for Wnt activity is described as follows. Reporter cell lines can be generated by stably transducing cancer cell lines (e.g., colon cancer) or primary cells (e.g., IEC-6 intestinal cells) with a lentiviral construct that includes a Wnt-responsive promoter driving expression of the firefly luciferase gene.
SW480 colon carcinoma cells were transduced with a lentiviral vector expressing luciferase with a human Sp5 promoter consisting of a sequence of eight TCF/LEF binding sites. SW480 cells stably expressing the Sp5-Luc reporter gene and a hygromycin resistance gene were selected by treatment with 150 μg/mL of hygromycin for 7 days. These stably transduced SW480 cells were expanded in cell culture and used for all further screening activities. […] For Sp5-Luc reporter gene assays, the cells were plated at 4,000 cells/well in 384-well plates with a DMEM medium containing 1% fetal bovine serum, and 1% Penicillin-Streptomycin and incubated for 36 to 48 hours at 37° C. and 5% CO2. Following incubation, 15 μl of BriteLite Plus luminescence reagent (Perkin Elmer) was added to each well of the 384-well assay plates. The plates were placed on an orbital shaker for 2 min and then luminescence was quantified using the Envision (Perkin Elmer) plate reader. Readings were normalized to DMSO only treated cells, and normalized activities were utilized for EC50 calculations using the dose-response log (inhibitor) vs. response-variable slope (four parameters) nonlinear regression feature available in GraphPad Prism 5.0 (or Dotmatics).

recombinant GSK3β kinase = recombinant GSK3β kinase (Homo sapiens (Human), UniProt P49841); assay: GSK3β kinase assay (Ser/Thr 09 peptide Z-lyte, FRET); assay type: biochemical;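 note: FRET read-out as coumarin over fluorescein emission ratio, compounds incubated one hour at room temperature, IC50 from dose-response curve fit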
[2] = system: SW480 colon carcinoma cells; assay: Cell viability assay (CellTiter-Glo); assay type: cell-based, human; settings: for EC50: four days, CellTiter-Glo
Protocol: SW480 colon carcinoma cells were transduced with a lentiviral vector expressing luciferase with a human Sp5 promoter consisting of a sequence of eight TCF/LEF binding sites. SW480 cells stably expressing the Sp5-Luc reporter gene and a hygromycin resistance gene were selected by treatment with 150 μg/mL of hygromycin for 7 days. These stably transduced SW480 cells were expanded in cell culture and used for all further screening activities.
For the Cell Viability Assays, the cells were plated at 2,000 cells/well in 384-well plates with a DMEM medium containing 1% fetal bovine serum, and 1% Penicillin-Streptomycin and incubated for […] at 37° C. and 5% CO2. Eight replicates of DMSO-treated cells served as controls and cells treated with compound were performed in duplicate.
After incubation, 10 μL of CellTiter-Glo (Promega) was added to each well allowed to incubate for approximately 12 minutes. This reagent “results in cell lysis and generation of a luminescent signal proportional to the amount of ATP present. The amount of ATP is directly proportional to the number of cells present in culture, in agreement with previous reports. The CellTiter-Glo Assay generates a “glow-type” luminescent signal, produced by the luciferase reaction (Promega.com)”.

[3] = system: LL29 cells (primary human fibroblasts derived from IPF patients), α-smooth muscle actin; assay: Inhibition of fibrotic process: TGF-β1-treated primary human fibroblasts, αSMA staining; assay type: cell-based; settings: for EC50: TGF-β1 20 ng/mL, 4 days, % cells positive for αSMA; for inhibition at 10 µM: read-out: percent inhibition at 10 μM (given for EC50 >10 μM), TGF-β1, αSMA, 10 μM;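 for all read-outs here: controls were TGF-β1-stimulated wells with DMSO vehicle as the positive reference and cells given DMSO alone as the negative reference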
[4] = system: IL-6 in human peripheral blood mononuclear cells (huPBMCs); assay: IL-6 inhibition in LPS-stimulated human peripheral blood mononuclear cells (HTRF); assay type: cell-based; settings: for EC50: LPS 50 ng/mL, 22 hours, IL-6 HTRF; for inhibition at 10 µM: read-out: percent inhibition at 10 μM (given for EC50 >10 μM), LPS, IL-6, 10 μM
Protocol: Human Peripheral Blood Mononuclear Cells:
Fresh Normal PB MNC (Catalog # PB001, AllCells, Alameda, Calif.) were shipped overnight at 4° C. and resuspended in Roswell Park Memorial Institute (RPMI) 1640 Medium, with GlutaMAX Supplement (Catalog #61870127, ThermoFisher Scientific, Waltham, Mass.) supplemented with 1% Penicillin-Streptomycin (Catalog #15140163, ThermoFisher Scientific, Waltham, Mass.) and 1% fetal bovine serum (FBS) (Catalog #16140089, ThermoFisher Scientific, Waltham, Mass.) assay media.
Fresh normal human peripheral blood mononuclear cells (huPBMCs) were resuspended in 1% FBS-RPMI assay media with 1% Penicillin-Streptomycin 1% to a cell concentration of 1×10e6 cells/mL. […] 50 ng/mL of Lipopolysaccharides from Escherichia coli 0111:B4 (Catalog # L5293-2ML, Sigma-Aldrich, St. Louis, Mo.) was added after 2 hours and cells were incubated for another 22 hours at 37° C.-5% CO2. After 22 hour incubation, a mixture of anti-IL6 XL665 and anti-IL-6 Cryptate diluted in reconstitution buffer (Catalog #62IL6PEC, Cisbio Inc., Bedford, Mass.) was added to each well. Following incubation for 3 hours at room temperature, Homogeneous Time-Resolved Fluorescence (HTRF) was measured using the Envision (Perkin Elmer, Shelton, Conn.) at 665 nm and […]. The ratio of fluorescence at 665 nm to 620 nm was used as a readout for IL-6 quantification. All samples were processed in duplicate. Readings were normalized to DMSO treated cells and normalized activities were utilized for EC50 calculations. EC50 was determined using software generated by Dotmatics Limited (Windhill Bishops Stortford Herts, UK) using the Levenberg-Marquardt 4 parameter fitting procedure with finite different gradients.

[5] = target: recombinant DYRK1A kinase (Homo sapiens (Human), UniProt Q13627); assay: DYRK1A kinase assay (Ser/Thr 18 peptide Z-lyte, FRET)
Protocol: Each compound was dissolved in DMSO as a 10 mM stock and used to prepare compound source plates.
This is a non-radioactive assay using fluorescence resonance energy transfer (FRET) between coumarin and fluorescein to detect kinase activity which is represented as a ratio of coumarin emission/fluorescein emission.
The mixture was allowed to incubate with the representative compounds for one hour at room temperature. All reactions were performed in duplicate. Unphosphorylated (“0% Control”) and phosphorylated (“100% control”) forms of Ser/Thr 18 served as control reactions. Additionally, an 11-point dose-response curve of Staurosporine (luM top) was run to serve as a positive compound control.
After incubation, Development Reagent A was diluted in Development Buffer then added to the reaction and allowed to further incubate for one hour at room temperature.
Dose-response curves were generated and inhibitory concentration (IC50) values were calculated using non-linear regression curve fit in the Dotmatics' Studies Software (Bishops Stortford, UK).

[6] = GSK3β kinase, head says EC50, method says IC50, ATP 46 μM
[7] = DYRK1A kinase, head says EC50, method says IC50, ATP 30 μM

Sequence of recombinant GSK3β kinase (P49841 whole entry): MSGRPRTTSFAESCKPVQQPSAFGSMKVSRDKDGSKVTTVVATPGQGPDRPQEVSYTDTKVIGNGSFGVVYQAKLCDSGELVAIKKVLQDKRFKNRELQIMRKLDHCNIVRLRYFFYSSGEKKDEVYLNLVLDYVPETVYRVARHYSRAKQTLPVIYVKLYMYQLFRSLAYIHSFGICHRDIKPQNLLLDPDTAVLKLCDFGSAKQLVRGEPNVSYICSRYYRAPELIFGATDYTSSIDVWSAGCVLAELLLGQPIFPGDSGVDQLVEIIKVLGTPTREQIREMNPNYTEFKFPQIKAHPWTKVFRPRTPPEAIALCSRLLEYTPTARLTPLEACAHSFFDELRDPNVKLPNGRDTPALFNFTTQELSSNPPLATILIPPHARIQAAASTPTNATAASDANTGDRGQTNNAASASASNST

Row | EC50 ([1]; Homo sapiens) [nM] | EC50 (recombinant GSK3β kinase; [6]) [µM] | EC50 ([2]; Homo sapiens, 96 h) [nM] | EC50 ([4]; Homo sapiens, PBMC) [nM] | EC50 [5, 7] [nM] | EC50 (recombinant GSK3β kinase) [µM] | EC50 [5] [nM] | Compound | EC50 ([3]; Homo sapiens, Fibroblast, 96 h) [nM] | inhibition at 10 µM ([1]; Homo sapiens) [%] | inhibition at 10 µM ([2]; Homo sapiens, read-out: percent inhibition at 10 μM (given for EC50 >10 μM), 10 μM) [%] | inhibition at 10 µM ([4]; Homo sapiens, PBMC) [%] | inhibition at 10 µM ([3]; Homo sapiens, Fibroblast) [%] | EC50 [1] [nM] | EC50 [2] [nM] | EC50 [3] [nM] | EC50 [4] [nM]
1 | 4010 | > 10 | 5860 | 7160 | 75 | – | – | CN1CCN(c2cc(C(=O)Nc3cc4cc(-c5cc(N)cc(F)c5)ccc4cn3)ccn2)CC1 [Compound 1, N-(6-(3-Amino-5-fluorophenyl)isoquinolin-3-yl)-2-(4-methylpiperazin-1-yl) isonicotinamide] | 2300 | – | – | – | – | – | – | – | –
2 | 2050 | > 10 | 1380 | 1330 | 354 | – | – | CC(C)Nc1cc(F)cc(-c2ccc3cnc(NC(=O)c4ccnc(N5CCN(C)CC5)c4)cc3c2)c1 [Compound 2, N-(6-(3-Fluoro-5-(isopropylamino)phenyl)isoquinolin-3-yl)-2-(4-methylpiperazin-1-yl)isonicotinamide] | 884 | – | – | – | – | – | – | – | –
3 | > 10000 | – | > 10000 | 6750 | – | > 10 | 242 | CN1CCN(c2cc(C(=O)Nc3cc4cc(-c5ccccn5)ccc4cn3)ccn2)CC1 [Compound 4, 2-(4-Methylpiperazin-1-yl)-N-(6-(pyridin-2-yl)isoquinolin-3-yl) isonicotinamide] | 3750 | 3.3 | 21.3 | – | – | – | – | – | –
4 | > 10000 | – | 9460 | > 10000 | – | > 10 | 18 | CN1CCN(c2cc(C(=O)Nc3cc4cc(-c5ccncc5)ccc4cn3)ccn2)CC1 [Compound 5, 2-(4-Methylpiperazin-1-yl)-N-(6-(pyridin-4-yl)isoquinolin-3-yl) isonicotinamide] | 2450 | 38.5 | – | 4.1 | – | – | – | – | –
5 | 159 | – | 324 | 2820 | – | > 10 | 3 | CN1CCN(c2cc(C(=O)Nc3cc4cc(-c5cccnc5)ccc4cn3)ccn2)CC1 [Compound 13, 2-(4-Methylpiperazin-1-yl)-N-(6-(pyridin-3-yl)isoquinolin-3-yl) isonicotinamide] | 805 | – | – | – | – | – | – | – | –
6 | > 10000 | > 10 | 9520 | > 10000 | 11 | – | – | CN1CCN(c2cc(C(=O)Nc3cc4cc(-c5cncc(F)c5)ccc4cn3)ccn2)CC1 [Compound 24, N-(6-(5-Fluoropyridin-3-yl)isoquinolin-3-yl)-2-(4-methylpiperazin-1-yl) isonicotinamide] | 2770 | 20.2 | – | 2.8 | – | – | – | – | –
7 | > 10000 | > 10 | 8870 | > 10000 | > 10000 | – | – | CN1CCN(c2cc(C(=O)Nc3cc4cc(-c5cncc(Cl)c5)ccc4cn3)ccn2)CC1 [Compound 25, N-(6-(5-Chloropyridin-3-yl)isoquinolin-3-yl)-2-(4-methylpiperazin-1-yl) isonicotinamide] | > 10000 | 8.9 | – | 4.6 | 44.8 | – | – | – | –
8 | 9690 | > 10 | 8700 | > 10000 | > 10000 | – | – | CN1CCN(CC(=O)Nc2cc3cc(-c4ccc(C(F)(F)F)nc4)ccc3cn2)CC1 [Compound 30, 2-(4-Methylpiperazin-1-yl)-N-(6-(6-(trifluoromethyl)pyridin-3-yl)isoquinolin-3-yl)acetamide] | > 10000 | – | – | 5.2 | 24.9 | – | – | – | –
9 | 1040 | > 10 | 1190 | 2140 | 4 | – | – | COc1cncc(-c2ccc3cnc(NC(=O)c4ccnc(N5CCN(C)CC5)c4)cc3c2)c1 [Compound 34, N-(6-(5-Methoxypyridin-3-yl)isoquinolin-3-yl)-2-(4-methylpiperazin-1-yl) isonicotinamide] | 507 | – | – | – | – | – | – | – | –
10 | 1380 | > 10 | 1160 | 1010 | 10 | – | – | O=C(Nc1cc2cc(-c3cncc(OC4CCNCC4)c3)ccc2cn1)c1ccc(F)cc1 [Compound 35, 4-Fluoro-N-(6-(5-(piperidin-4-yloxy)pyridin-3-yl)isoquinolin-3-yl) benzamide] | 2800 | – | – | – | – | – | – | – | –
11 | 379 | 8.86 | 493 | 1220 | 2 | – | – | Nc1cncc(-c2ccc3cnc(NC(=O)c4ccc(F)cc4)cc3c2)c1 [Compound 36, N-(6-(5-Aminopyridin-3-yl)isoquinolin-3-yl)-4-fluorobenzamide] | 292 | – | – | – | – | – | – | – | –
12 | 109 | 4.62 | 81 | 662 | 1 | – | – | Nc1cncc(-c2ccc3cnc(NC(=O)c4ccc(OC5CCNCC5)cc4)cc3c2)c1 [Compound 37, N-(6-(5-Aminopyridin-3-yl)isoquinolin-3-yl)-4-(piperidin-4-yloxy) benzamide] | > 10000 | – | – | – | 39.5 | – | – | – | –
13 | 75 | – | 225 | 765 | – | > 10 | 2 | CN1CCN(c2cc(C(=O)Nc3cc4cc(-c5cncc(N)c5)ccc4cn3)ccn2)CC1 [Compound 38, N-(6-(5-Aminopyridin-3-yl)isoquinolin-3-yl)-2-(4-methylpiperazin-1-yl) isonicotinamide] | 603 | – | – | – | – | – | – | – | –
14 | – | – | – | – | – | – | – | CC(C)CCN1CCC(C(=O)Nc2cc3cc(-c4cncc(NC(C)C)n4)ccc3cn2)CC1 [Compound 91, 1-Isopentyl-N-(6-(6-(isopropylamino)pyrazin-2-yl)isoquinolin-3-yl) piperidine-4-carboxamide] | – | – | – | – | – | 718 | 6890 | 19 | 446

Row | Compound | EC50 ([1]; Homo sapiens) [nM] | EC50 (recombinant GSK3β kinase; [6]) [µM] | EC50 ([2]; Homo sapiens, 96 h) [nM] | EC50 ([4]; Homo sapiens, PBMC) [nM] | EC50 [5, 7] [nM] | EC50 (recombinant GSK3β kinase) [µM] | EC50 [5] [nM] | EC50 ([3]; Homo sapiens, Fibroblast, 96 h) [nM] | inhibition at 10 µM ([1]; Homo sapiens) [%] | inhibition at 10 µM ([2]; Homo sapiens, read-out: percent inhibition at 10 μM (given for EC50 >10 μM), 10 μM) [%] | inhibition at 10 µM ([4]; Homo sapiens, PBMC) [%] | inhibition at 10 µM ([3]; Homo sapiens, Fibroblast) [%] | EC50 [1] [nM] | EC50 [2] [nM] | EC50 [3] [nM] | EC50 [4] [nM]
15 | CC(C)Nc1cncc(-c2ccc3cnc(NC(=O)C4CCN(CCF)CC4)cc3c2)n1 [Compound 89, 1-(2-Fluoroethyl)-N-(6-(6-(isopropylamino)pyrazin-2-yl)isoquinolin-3-yl) piperidine-4-carboxamide] | – | 0.014 | – | – | – | – | – | – | – | – | – | – | 178 | 447 | 3910 | 390
